Literature values as cited in patent publication EP3771336A1, “REPELLENT COMPOSITION” (priority 2019, dated 2021).
Values after ≈ are worked out from the molar mass of the structure shown.

What was measured:
[1] = at 25°C
Daphnia magna = details: aquatic toxicity, daphnids

| vapor pressure [1] | solubility in water | SMILES | EC50 (Daphnia magna) [mg/L] |
| --- | --- | --- | --- |
| 4.88 x 10^-5 kPa | – | CCCCCCCCCC(=O)O [Decanoic acid] | 16 (≈ 92.9 µM) |
| – | poor solubility in water | CCCCCCCCCCCC(=O)OC(C)C [IPL, propan-2-yl dodecanoate] | – |
| – | immiscible with water | CCCCCCCCCCCCCCCC(=O)OC(C)C [IPP, propan-2-yl hexadecanoate] | – |
| 2.13 x 10^-6 kPa | poorly soluble in water | CCCCCCCCCCCC(=O)O [lauric acid, dodecanoic acid] | – |
